ChEMBL document CHEMBL1126335, “Aryl cyanoguanidine potassium channel openers” (Bioorg Med Chem Lett, 1992)
Several values for one entry are separate records, joined by “and”; a condition that tells them apart may be missing. Equal entries are not always repeated.

Assays:
Type in all cases: functional
Rattus norvegicus [1] = organism: Rattus norvegicus; assay: Vasorelaxant potency required to relax methoxamine contracted male Wistar Kyoto rat thoracic aorta
Rattus norvegicus [2] = assay: Antihypertensive activity expressed as percent maximum decrease in blood pressure at 45 umol/kg for 12-18 hrs in spontaneously hypertensive male rats when administered perorally
Rattus norvegicus [3] = assay: Antihypertensive activity expressed as percent maximum decrease in blood pressure at 45 umol/kg for 6-12 hrs in spontaneously hypertensive male rats when administered perorally
Rattus norvegicus [4] = assay: Antihypertensive activity expressed as percent maximum decrease in blood pressure at 45 umol/Kg for 0-6 hrs in spontaneously hypertensive male rats when administered perorally
Rattus norvegicus [5] = assay: Antihypertensive activity expressed as percent maximum decrease in blood pressure at 45 umol/kg for 18-24 hrs in spontaneously hypertensive male rats when administered perorally

SMILES	IC50 (Rattus norvegicus [1]) [nM]	Max decrease (Rattus norvegicus [2])	Max decrease (Rattus norvegicus [3]) [%]	Max decrease (Rattus norvegicus [4]) [%]	Max decrease (Rattus norvegicus [5]) [%]
CCC(C)(C)/N=C(\NC#N)NCc1ccc(C#N)cc1	1500	–	–	–	–
CC(/N=C(\NC#N)Nc1cccc([N+](=O)[O-])c1)C(C)(C)C (centres undefined)	170	–	–	–	–
CC(/N=C(\NC#N)Nc1ccc(C#N)cc1)C(C)(C)C (centres undefined)	22	26%	26	33	25
CC(C)(C)/N=C(\NC#N)Nc1ccc(C#N)cc1	430	–	–	–	–
CC(/N=C(\NC#N)Nc1ccccc1[N+](=O)[O-])C(C)(C)C (centres undefined)	240	–	–	–	–
CC(/N=C(\NC#N)Nc1ccc([N+](=O)[O-])cc1)C(C)(C)C (centres undefined)	5150	–	–	–	–
C/N=C(\NC#N)Nc1ccc(C#N)cc1	123000	–	–	–	–
CC(C)/N=C(\NC#N)Nc1ccc(C#N)cc1	19000	–	–	–	–
CCC(C)(C)/N=C(\NC#N)Nc1ccc(C#N)cc1	120	–	–	–	–
CC(/N=C(\NC#N)Nc1cccc(C#N)c1)C(C)(C)C (centres undefined)	420	–	–	–	–
CC(/N=C(\NC#N)Nc1ccccc1)C(C)(C)C (centres undefined)	880	–	–	–	–
CC1(C)Oc2ccc(C#N)cc2[C@@H](N2CCCC2=O)[C@@H]1O [CROMAKALIM]	55	37%	35	63	42
CC(N/C(=N\C#N)Nc1ccncc1)C(C)(C)C (centres undefined) [PINACIDIL ANHYDROUS]	70	21% and 23%	–	40	14
